Assay results published in patent publication US7871978B2, “Bone tropic peptides” (University of Virginia Patent Foundation, priority 2004, dated 2011).
Entries after “also recorded” stand apart in the source; their conditions may differ.

Legend:
[1] = tested on: Membrane and cytosol fractions from human bone marrow endothelial cells; test: Affinity chromatography of HBME fractions on immobilized peptide; type: binding; parameters: key to Identification of binding partners by affinity chromatography: HBME: ✓: Check marks indicate positive binding observed with FITC; −: a dash indicates a negative result; details: for Identification of binding partners by affinity chromatography: HBME: cell lysates
Procedure: (§1) Membrane and cytosol fractions from human bone marrow endothelial cells and bovine aortic endothelial cells were prepared and used to identify the components from within these fractions that bind to the peptides using affinity chromatography). […] Cell surface nucleolin is present at higher concentrations in actively dividing cells and is down regulated in cells when they become quiescent. Nucleolin is the apparent cell surface receptor of E-coli intimin-gamma. Cell bound intimin has been proposed to trigger a host cell response similar to the extension of filipodia when cells bind to laminin. […] Table 3 provides a summary of peptide-binding partners (putative receptors) identified by affinity chromatography of cell lysates.
Peptide Affinity Column Chromatography: Peptides identified from the phage display experiments in mouse bone and bone marrow were synthesized with an additional three-residue glycine linker and an N-terminal lysine residue. The lysine residue was used to specifically link the peptides to a support. Cell membranes from BMECs were solubilized with triton X-100. The solubilized proteins were passed through the peptide affinity column (total volume, 500 μL) followed by extensive washes with buffer. Retained proteins were eluted either with 100 mM solution of the same peptide as that immobilized on the column or with a wash of 0.1 N HCl-Glycine, pH 2.2. The eluates were analyzed by SDS PAGE and proteins observed in the gels were identified by LC/MS/MS.

[2] = tested on: Membrane and cytosol fractions from bovine aortic endothelial cells; test: Affinity chromatography of BAEC fractions on immobilized peptide; type: binding; parameters: key to Identification of binding partners by affinity chromatography: BAEC: ✓: Check marks indicate positive binding observed with FITC; −: a dash indicates a negative result; details: cell lysates
Procedure: as §1

D1 cells = test: Peptide binding to D1 bone marrow mesenchymal cells; details: for Binding to D1 cells: FIG. 4; for Binding to cells from the skeleton in vitro: mesenchymal cells from bone marrow (D1), or human bone marrow endothelial cells, avidin-FITC probe
Text: (§2) Bone marrow cells isolated from mouse femur were lifted with ethylenediaminetetraacetic acid (EDTA) and trypsin, resuspended, and allowed to attach on fibronectin-coated chamber slides for Avidin-FITC staining. […] The D1 cell is a multipotential mesenchymal stem-like line that was isolated from bone marrow and shown to have the characteristics of osteoprogenitor cells. This cell line has been well established and used successfully in several in vitro and in vivo studies in our laboratory. Peptide binding to human bone marrow endothelial cells (HBME) and bovine aortic endothelial cells (BAEC) in culture was also tested using the same procedure.
The peptides were ranked based on the frequency with which they occurred in the plaques from which DNA was prepared and sequenced. Four of the sequences (L13, L19, R1, and R3) were synthesized as biotinylated peptide or as the control non biotinylated version of the sequence. […] The cells used in these experiments were mesenchymal cells from bone marrow (D1), or human bone marrow endothelial cells. An avidin-FITC probe detected the biotinylated peptide in areas of the cells in culture representing either extrusions from the cells or at the end of cell processes; structures reminiscent of adhesion plaques or footprints.

[3] = tested on: human bone marrow endothelial cells (HBME); test: Peptide binding to HBME cells in culture (Avidin-FITC); parameters: key: ✓: Check marks indicate positive binding observed with FITC; −: a dash indicates a negative result
Procedure: (§3) For localization of peptide binding to cells and tissue sections, biotinylated peptides were synthesized. Fluorescein-isothiocyanate (FITC) labeled Avidin was used to localize the peptides on cells in culture and in tissue sections in vitro by epiluminescence microscopy. In addition, the biotinylated peptides were detected at concentrations as low as 1 μM in slot blots.
as §2

[4] = tested on: Bone marrow cells isolated from mouse femur; test: Peptide binding to bone marrow cells in culture (Avidin-FITC); parameters: key to Localization of peptide binding: Marrow (cells in culture): ✓: Check marks indicate positive binding observed with FITC; −: a dash indicates a negative result; details: for Localization of peptide binding: Marrow (cells in culture): FITC; for Binding to adherent cells from bone marrow blowouts: fibronectin-coated chamber slides, Avidin-FITC staining
Procedure: as §3, §2

[5] = tested on: prostate cancer cells (CaP); test: Prostate cancer (CaP) cell adhesion to BMEC, cell line not distinguished; type: cell-based; details: for Effect on CaP cell adhesion to BMEC: LNCaP compared to C4-2, FIG. 8, preliminary results
Procedure: FIG. 8 is a graphic representation of the effects of various peptides on altering cellular adhesion to BMEC cells in vitro. LNCaP cells were compared directly to C4-2 cells for the ability of specific phage-derived peptides to alter cellular adhesion to BMEC cells in vitro. Adhesion was measured at […]. C=control (no peptide). The ordinate represents percent of acid precipitable counts bound and the abscissa indicated the cells treated and the peptides used.
The phage-derived bone-targeting peptides isolated by biopanning were tested for their ability to alter the adhesion of prostate cancer cells to a human bone marrow endothelial cell line (see FIG. 8). In this assay, LNCaP cells were compared directly to the more metastatic, bone colonizing derivative, C4-2.
This observation will be examined further and exploited by the aims of this proposal to identify the binding partners of nucleolin in prostate cancer cells as well as to investigate bone tropic peptides as potential inhibitors of prostate cancer metastasis.

[6] = tested on: bone marrow derived mesenchymal stem cells; test: Microarray gene expression analysis of peptide-treated mesenchymal stem cells; type: cell-based; details: 100 μM/ml peptide, day 7, microarray
Procedure: For gene analysis, the bone marrow derived mesenchymal stem cells were seeded at 95,000 cells per well in a 6 well plate and maintained in culture media containing 100 μM/ml of each of the 13 peptides. The media were changed every three days. The cells were harvested at day 7, total RNA isolated using the Qiagen RNeasy kit and quantified with a spectrophotometer. After initial screening of the genes with real-time PCR, four peptides were chosen for microarray analysis: L13, L19, R1, and R3 (SEQ ID NOs: 8, 10, 11, and 13, respectively).

SER-GLY-HIS-GLN-LEU-LEU-LEU-ASN-LYS-MET-PRO-ASN-GLY-GLY-GLY-SER (SGHQLLLNKMPNGGGS; listed as Homo sapiens) [Peptide L13]
Binding partner from HBME / bone marrow endothelial cells ([1]; biotinylated peptide immobilized on avidin-agarose): nucleolin was the major component that binds
Identification of binding partners by affinity chromatography: HBME [1]: ✓Nucleolin
Identification of binding partners by affinity chromatography: BAEC [2]: −
Binding to D1 cells (D1 cells): bind to D1 cells
Binding to cells from the skeleton in vitro (D1 cells): found to bind cells from the skeleton
Localization of peptide binding: HBME [3]: ✓
Localization of peptide binding: Marrow (cells in culture) [4]: ✓
Binding to adherent cells from bone marrow blowouts [4]: showed detectable binding
Concentrations at which peptide inhibits prostate cancer cell adhesion to BMEC ([5]; 50 μM and 100 μM tested): at both 50 μM and 100 μm
Effect on CaP cell adhesion to BMEC [5]: consistent suppression of CaP cell invasion that was saturated at the doses tested; also recorded: inhibits CaP cell adhesion to bone marrow endothelial cells
Fold Change: Ameloblastin [6]: +3.73 fold
Fold Change: Cartilage link protein 1 [6]: +2.00 fold
Fold Change: Eph receptor A5 [6]: +4.92 fold
Fold Change: Fibronectin 1 [6]: −2.64 fold
Fold Change: Hypothetical protein MGC28705 [6]: +4.59 fold
Fold Change: Neural cell adhesion molecule 2 [6]: +6.96 fold
Fold Change: Procollagen, type I, alpha 1 [6]: +3.03 fold
Fold Change: RIKEN cDNA 2410129E14 gene [6]: +3.03 fold
Fold Change: Syndecan 4 [6]: +3.03 fold
Fold Change: Thyroid hormone receptor alpha [6]: −1.23 fold
Fold Change: v-raf-1 leukemia viral oncogene 1 [6]: +2.46 fold

ASN-SER-MET-ILE-ALA-HIS-ASN-LYS-THR-ARG-MET-HIS-GLY-GLY-GLY-SER (NSMIAHNKTRMHGGGS; listed as Homo sapiens) [Peptide L7]
Identification of binding partners by affinity chromatography: HBME [1]: −
Identification of binding partners by affinity chromatography: BAEC [2]: −

ASN-TYR-SER-HIS-LEU-ARG-VAL-LYS-LEU-PRO-THR-PRO-GLY-GLY-GLY-SER (NYSHLRVKLPTPGGGS; listed as Homo sapiens) [Peptide R1]
Binding to D1 cells (D1 cells): bind to D1 cells
Binding to cells from the skeleton in vitro (D1 cells): found to bind cells from the skeleton
Localization of peptide binding: Marrow (cells in culture) [4]: ✓
Binding to adherent cells from bone marrow blowouts [4]: showed detectable binding
Effect on CaP cell adhesion to BMEC [5]: did not show remarkable activity
